# Experimental data: patent US20180326022A1, “COMPOSITIONS AND METHODS FOR IMPROVING HEART FUNCTION AND TREATING HEART FAILURE” (The Trustees of the University of Pennsylvania, priority 2017, published 2018)
# Columns and labels:
# rat adult cardiomyocytes = assay: Immunofluorescence quantification of α- and dTyr-tubulin fraction of cell area; format: cell-based
# Method: Viral constructs were permitted to express for 24-72 hours with Moi=100-200. Parthenolide (Fisher Scientific NC9013142) treatment was carried out at room temperature for 2 hours at 10 μM. All experiments were performed within 48 hours of isolation, except those involving shTTL, which were allowed 72 hours to improve knockdown efficiency.
# Cells were fixed in 4% PFA for 15 minutes and permeabilized in 0.5% TritonX-100 for 4 minutes at room temperature. Alternately cells were fixed in methanol at −20° C. for 7 minutes. After washing, cells were placed in blocking buffer (5% BSA and 0.1% TritonX-100 in PBS) for 1 hour, then labeled with primary antibodies (below) for 24-48 hours at 4° C. Cells were then washed 4× in blocking buffer, labeled with secondary antibodies (below) at room temperature and washed 3× in blocking buffer. Stained cells were mounted on mouse laminin coated #1.5 coverslips in Prolong Gold Antifade Mountant (Life Technologies P36934) for imaging.
# Confocal imaging was carried out on a Zeiss 780 laser scanning confocal scan head operating on an Axiovert Z1 inverted microscope equipped with a 40× oil 1.4 NA objective. High-speed super resolution imaging was carried out on a Zeiss 880 Airyscan confocal with a 63×1.4 oil NA objective (FIG. 8A-FIG. 8E, Airyscan application note can be found at http://www.zeiss.com/microscopy/enus/products/confocal-microscopes/Ism-880-with-airyscan-.html#downloads). Image analysis was performed using ZEN Black software for Airyscan processing, which involves signal integration from the 32 separate sub-resolution detectors in the Airyscan detector and subsequent deconvolution of this integrated signal (FIG. 8A-FIG. 8E). Additional signal processing was performed in Image J (NIH). For calculating the microtubule fraction of cell area (FIG. 2B-FIG. 2C), image analysis was performed blinded to the experimental treatment groups. A 1.5 μm max intensity projection was produced from 3 0.5 μm confocal z-sections. […] From the resulting binary images (FIG. 9B), the microtubule positive fraction of the total cell area was calculated for alpha and detyrosinated tubulin (FIG. 2C).
# isolated cardiomyocytes = assay: Atomic force microscopy viscoelasticity (Standard Linear Solid Model); format: cell-based, rat; conditions: mean(SEM)
# Method: The elastic modulus of isolated cardiomyocytes was measured using AFM indentation. Optical microscopy and AFM were performed simultaneously using an MFP3D AFM (Asylum Research) combined with an inverted Nikon TE-2000U microscope equipped with a Nikon 100×, 1.49 NA objective. TTL expression was determined by dsRED fluorescence captured via 532 nm laser excitation (CrystaLaser) and a CCD camera (Cascade-512B, Photometrics) at 900 ms exposure time controlled through the NIS Elements software package. […] Modulus characterization of myocytes was performed using 4.26 μm radius (R below) SiO2 microparticle epoxied to SiN cantilevers with nominal spring constant 0.03 N/m (CP-PNPS-SiO-A, Nano And More, USA). Cantilever spring constants were manually calibrated in air by thermal vibrations using the MFP3D prior to each experiment using a clean glass substrate. Inverse optical lever sensitivity was determined in myocyte buffer solution prior to each round of measurements.
# Elastic moduli were determined by fitting the indentation curve to the Hertz model (Eq. 17) adjusted for a spherical indenter using the Asylum Research built in analysis software.
# E is the elastic modulus, υ, is the cell Poisson ratio and δ is the indentation depth. Transverse compression of the cardiomyocyte is performed over a range of indentation speeds and the indentation speed is divided by the total indentation depth to obtain an effective indentation rate, f. Viscosity and velocity dependent elastic moduli were then derived by fitting each myocyte to a Standard Linear Solid Model: […]
# [1] = system: cardiac and skeletal muscle; conditions: 10 μM; refs (13), (8); cited from earlier work
# human myocytes = assay: Calcium measurements in human myocytes; format: cell-based
# Method: Viable myocytes were concentrated by gravity (5-7 min) and supernatant was aspirated to remove dead cells. Myocytes were resuspended in NT solution containing 1 mM Ca^2+ and concentrated by gravity (5-7 min) again. Cardiomyocytes used acutely were maintained in NT solution for up to 6 hours. Myocytes were treated with 10 μM parthenolide (Fisher Scientific NC9013142 or Sigma P0667) or 10 μM colchicine (Sigma) at room temperature in NT solution for 2 hours. Experiments were performed within 6 hours of isolation, except for those involving viral transduction in cultured cells.
# Calcium measurements were carried out as described in Example 1 with the following modifications. Myocytes were loaded with 1 μM Fluo-3-acetoxymethyl ester (Invitrogen) and 15% Pluronic F127 (a poloxamer made by BASF, Florham Park, N.J., USA) for 15 minutes. Cells were scanned using a 488-nm argon ion laser in confocal line-scan mode at 0.909 ms/line. Cells were electrically paced at 0.5 Hz at room temperature for 30 s to achieve steady state; five steady-state transients of each myocyte were averaged, pooled in groups and analyzed for calcium transient properties. The measured fluorescence (F) throughout the transient was normalized to the resting fluorescence prior to stimulation (F0) to normalize for heterogeneity in dye loading.
# [2] = rat cardiomyocytes, thresholded immunofluorescence, TTL vs null, PTL vs ctrl
# [3] = NF human myocytes, suggested off-target effect
smiles,measurement,setting,value
"C=C1C(=O)O[C@H]2[C@H]1CC/C(C)=C/CC[C@@]1(C)O[C@@H]21 [PTL, 4,5-epoxygermacra-1(10),11(13)-dien-12,6-olactone]",effect on MT network density,rat adult cardiomyocytes; PTL treatment,no effect
same,"reduction in the amount/fraction of polymerized, detyrosinated MTs","rat adult cardiomyocytes; isolated rat cardiomyocytes, immunofluorescence and immunoblot",2 fold
same,Detyr (% cell area),rat adult cardiomyocytes; [2],30.8 % cell area
same,α-tub (% cell area),rat adult cardiomyocytes; [2],67.8 % cell area
same,η (Pa*s),isolated cardiomyocytes; SLSM-fit derived viscosity,38.8(8.0) Pa*s
same,E2 (Pa),isolated cardiomyocytes; velocity-dependent elastic modulus,215.3(25.0) Pa
same,E1 (Pa),isolated cardiomyocytes; velocity-independent elastic modulus,170.6(22.5) Pa
same,effect on microtubules,[1],suppresses detyrosination
same,[Ca2+]i amplitude,human myocytes; [3],reduced
same,[Ca2+]i transient decay phase,human myocytes; [3],prolonged
same,impaired [Ca2+]i cycling,human myocytes; failing human myocytes,neither colch nor PTL treatment improved
same,F0 (baseline fluo3 intensity) compared to initial levels,human myocytes; human myocytes,elevated
